The Ki is a measure of affinity in units of concentration, obtained from inhibition or displacement.

One data set deals with sphingosine kinases. To be noted: background statement; read-out: typical KI value; cited from earlier work.
The next data set has as its target recombinant SphK2 (Mus musculus, UniProt Q9JIA7). Put plainly: SphK2 scintillation proximity kinase assay. Type of data set: biochemical. The settings on record: Estimated Ki values at recombinant SphK2; read-out: SphK2 (estimated Ki range).
The target in a further data set is recombinant SphK1 (Homo sapiens (Human), UniProt Q9NYA1). Put plainly: SphK1 scintillation proximity kinase assay. The settings on record: read-out: SphK1 (estimated Ki range); Estimated Ki values at recombinant SphK1.
The conditions of data set [1]: patients, 1-yr trial; cited from earlier work.

recombinant SphK2, sequence (Q9JIA7 whole entry, looked up): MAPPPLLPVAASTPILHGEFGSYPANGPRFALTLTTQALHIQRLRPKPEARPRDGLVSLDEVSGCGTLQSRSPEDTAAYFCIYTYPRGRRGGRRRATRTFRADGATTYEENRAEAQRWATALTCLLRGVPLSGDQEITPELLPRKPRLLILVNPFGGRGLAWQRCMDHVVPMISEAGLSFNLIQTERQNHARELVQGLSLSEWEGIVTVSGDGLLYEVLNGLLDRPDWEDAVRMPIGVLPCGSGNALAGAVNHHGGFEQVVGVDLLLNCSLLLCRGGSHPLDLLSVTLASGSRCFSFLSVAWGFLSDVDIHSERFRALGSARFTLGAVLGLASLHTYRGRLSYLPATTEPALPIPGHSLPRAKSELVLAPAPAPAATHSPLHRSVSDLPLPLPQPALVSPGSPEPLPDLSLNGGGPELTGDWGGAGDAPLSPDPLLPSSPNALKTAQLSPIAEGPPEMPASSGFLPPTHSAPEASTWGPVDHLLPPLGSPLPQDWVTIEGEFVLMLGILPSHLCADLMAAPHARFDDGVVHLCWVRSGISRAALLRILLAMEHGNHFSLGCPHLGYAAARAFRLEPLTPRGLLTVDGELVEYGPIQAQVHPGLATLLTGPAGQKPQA
recombinant SphK1, sequence (Q9NYA1 whole entry): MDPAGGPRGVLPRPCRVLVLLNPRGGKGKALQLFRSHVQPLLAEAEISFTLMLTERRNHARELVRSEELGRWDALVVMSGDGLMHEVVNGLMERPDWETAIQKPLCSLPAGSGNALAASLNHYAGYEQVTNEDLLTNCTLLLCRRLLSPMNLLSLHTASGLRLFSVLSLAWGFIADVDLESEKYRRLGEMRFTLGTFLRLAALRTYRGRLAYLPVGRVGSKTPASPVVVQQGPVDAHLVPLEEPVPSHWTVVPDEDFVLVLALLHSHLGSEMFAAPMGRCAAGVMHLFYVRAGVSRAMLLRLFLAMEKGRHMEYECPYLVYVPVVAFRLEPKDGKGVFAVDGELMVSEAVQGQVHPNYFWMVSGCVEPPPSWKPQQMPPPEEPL

As for `CCCCCCCCCCCCCCC[C@H](O)[C@@H](N)CO` (racemic) [DL-threo-dihydrosphingosine], on sphingosine kinases, the inhibition constant Ki was below 10 µM.

With “(S)-2-((3-(3-nonylphenyl)-1,2,4- oxadiazol-5-yl)methyl)pyrrolidine-1- carboximidamide [Compound 75]”, the Ki at recombinant SphK2 and at recombinant SphK1 was above 10 µM throughout. Consider `CCCCCCCCc1ccc(CCC(N)(CO)CO)cc1` [fingolimod, 2-amino-2-[2-(4-octylphenyl)ethyl]propane 1,3-diol], for which the “hypertension (blood pressure rise)” value in data set [1] is given as 2-3 mmHg.

The values are drawn from patent publication US9688668B2, “Long chain base sphingosine kinase inhibitors” (UNIVERSITY OF VIRGINIA PATENT FOUNDATION, priority 2012, dated 2017).
